We go through 1 substance from US20180125796A1, “TREATMENT OF MYCOBACTERIAL INFECTION” (priority 2015, published 2018).

In this test the test system is NPC1. The class given is cell-based, Chinese Hamster.

For trehalose dimycolate [TDM], the “resistance to phenotype induction by TDM versus extent of NPC1 overexpression” value is listed as “cells over-expressing NPC1 by 15-fold were more resistant than those over-expressing NPC1 5-fold”. Moreover, the “induction of NPC cellular phenotypes by TDM in CHO cells overexpressing NPC1, versus wild-type cells” value (FIG. 10B) was “more resistant to induction of NPC cellular phenotypes than wild-type cells”.
